Test results published in patent publication US8071575B2, “Methods and compounds for the targeted delivery of agents to bone for interaction therewith” (priority 2007, dated 2011).
“Also recorded” adds a separate entry of the source.

Legend:
[1] = system: OVX rats; test: RatLaps ELISA for C-telopeptide fragments of collagen type I (CTX-I) in serum; type: in vivo, Sprague-Dawley female rats; details: Formula 125 at 1000 μg/kg, 17-ethinyl estradiol equimolar, alendronate 1.6 mg/kg
From the text: RatLaps™ ELISA for C-Telopeptide Fragments of Collagen Type I (CTX-I). […] Bone resorption (CTX-I) was quantitatively assessed in rat serum using the commercially available RatLaps™ ELISA KIT from Nordic Bioscience Diagnostics A/S (Herlev, Denmark) as recommended by the manufacturer.

[2] = Hydroxyapatite (HA) Binding Assay; details: 10^−5 M analyte, 50 mM Tris-HCl pH 7.4, 1% DMSO; adjusted such that tetracycline = 100
Protocol: A Hydroxyapatite (HA) Binding Assay is used to determine whether compounds have an affinity for bone. Compounds of the presently-disclosed subject matter having a Bone Targeting Portion (RT) are studied using the HA Binding Assay. A 10^−3 M solution of each analyte was made in 100% dimethylsulfoxide (DMSO). A 100 fold dilution was then made to form a 10^−5 M solution in 50 mM Tris-HCl buffer, pH 7.4, 1% DMSO. Tetracycline was used as a reference analyte and approximately 50% was adsorbed to HA at the concentration of 10^−5 M. The HA slurry was 0.5 g/100 mL 50 mM Tris-HCl buffer, 1% DMSO.
For each analyte, two samples were prepared. For one sample, 1 mL of 10^−5 M analyte and 100 μL 50 mM Tris-HCl buffer, 1% DMSO was pipetted into a microcentrifuge tube. For the second sample, 1 mL of 10^−5 M analyte and 100 μL of the HA slurry was pipetted into a microcentrifuge tube. The samples were mixed gently by inversion for 4 minutes and then centrifuged at 12,000 g for 3 minutes to sediment the HA contained in those samples. The supernatant was transferred to another microcentrifuge tube.
An electronic spectral scan (ultraviolet-visible) from 220-520 nm was obtained for each analyte using a Varian Cary 300 Bio Scan. The blank was 50 mM Tris-HCl buffer, 1% DMSO. The wavelength of maximum absorbance (λmax) was determined, and the extinction coefficient (ε) was calculated using the Beer-Lambert Law.
The absorbance of the samples incubated with HA was measured at λmax, and the molar concentration of the analyte was then determined using the Beer-Lambert Law and the previously calculated extinction coefficient. The fraction adsorbed to HA for each sample was subsequently calculated.

[3] = system: OVX rats; test: Uterine mass and uterine mass to body weight ratio in OVX rats; type: in vivo, Sprague-Dawley female rats; details: for uterine mass: present-tense example, no data or figure
Protocol: (§1) Animals. Six month old, bilaterally ovariectomized (OVX) or sham operated Sprague-Dawley female rats (Harlan Laboratories, Indianapolis, Ind.) were maintained at the University of Louisville Research Resources Center at 22° C. with a 12-h light/dark cycle and ad libitum access to tap water and rodent chow (Purina Laboratory Rodent Diet 5001). All animal procedures were approved by the Institutional Animal Care and Use Committee, which is certified by the American Association for Accreditation of Laboratory Animal Care.
(§2) In vivo experiments were conducted in order to investigate the efficacy of compounds of the presently-disclosed subject matter. In all of the experiments, OVX and sham operated rats were randomly divided into groups of 5-7 animals. In all of the studies experimental groups included: i) Sham-operated control (euthanized six weeks post surgery as a pretreatment control), ii) OVX control (euthanized six weeks post surgery as a pretreatment control), iii) Sham control receiving vehicle, iv) OVX control receiving vehicle, v) OVX receiving 17-ethinyl estradiol (equimolar concentration with a selected test compound), vi) OVX receiving alendronate (1.6 mg/kg), and vii) OVX receiving parathyroid hormone 1-34 (PTH) ([…]). 17-ethinyl estradiol (17 EE) is a free estrogenic agent known to be orally active, and can serve as an example of an anti-catabolic agent. Alendronate (Alen) is a bisphosphonate that is currently used to treat osteoporosis (e.g., Fosamax®, Merck & Co., Inc,), and can serve as an example of an anti-catabolic agent. Parathyroid hormone 1-34 (PTH) is an agent that can serve as an example of an anabolic agent. All compounds and vehicle (1% DMSO in corn oil) were administered three times per week orally by gavage except for PTH which was administered via a subcutaneous injection in a volume of 0.5 ml/kg body mass thrice per week. Compound administration was initiated 6 weeks following surgery and lasted for 6 weeks (18 doses total).
(§3) Compounds of the presently-disclosed subject matter were orally administered to OVX rats at various doses. As indicated above all BTE's were administered three times per week for 6 weeks.
(§4) Following 6 weeks of treatment, blood was obtained from each animal via cardiac puncture following an overnight fast and animals were subsequently euthanized via carbon dioxide asphyxiation. Blood was centrifuged immediately and the obtained serum samples were aliquoted and stored at −70° C. prior to analysis. Uteri were removed and fresh weights were obtained. Uterine masses were normalized to body mass at the end of the experiment. The left and right femora and left and right tibiae were subsequently collected from each animal, cleaned of soft tissue, and stored in saline at 4° C. prior to analysis.
Uterine Mass and Body Weight. […] Uterine mass can be used to as a measure of estrogenic effect occurring in a tissue outside the bone in response to treatment with a test compound or composition. Generally, a lower uterine mass can be associated with a decreased risk of adverse side effects associated with the test compound or composition. A ratio of uterine mass to body weight can be used to correct for any increase in uterine size attributable to the relative size of the individual animal. Body weight and/or uterine mass also serve as an indirect measures of toxicity of a test compound.

[4] = system: OVX rats; test: Quantitative determination of lipid metabolism (total cholesterol, HDL, LDL) in rat serum; type: in vivo, Sprague-Dawley female rats
Protocol: as §1, §2, §4
Quantitative Determination of Lipid Metabolism (Total Cholesterol HDL, and LDL) in Rat Serum. Total cholesterol, high-density lipoprotein (HDL), and low-density lipoprotein (LDL) were quantitatively determined in the serum of rats in order to evaluate the extraosseous effects of estrogen treatment on lipid metabolism. Commercially available kits from Wako Diagnostics (Richmond, Va.) were used for the evaluations as recommended by the manufacturer.

[5] = system: OVX rats; test: Femoral density via Archimedes' Principle (whole bone); type: in vivo, Sprague-Dawley female rats; details: for whole bone density and regional bone density: present-tense example, no data or figure
Protocol: as §1, §2, §3, §4
Femoral Density via Archimedes' Principle. Right femora were submerged in distilled water and fully hydrated under a vacuum for 1 hr. Subsequently, the mass of each hydrated femur was obtained in air and when submerged in water. Densities were determined using Archimedes' Principle according to the following formula: density=[mass of hydrated femur/(mass of hydrated femur−mass of hydrated femur submerged in water)]×density of distilled water at a given temperature (See Keenan, et al. Comparison of bone density measurement techniques: DXA and Archimedes' principle. J Bone Miner Res 1997; 12:1903-7.). The obtained density measurements were associated with whole bone.

[6] = system: OVX rats; test: Volume fraction, ex vivo micro-computed tomography of tibia; type: in vivo, Sprague-Dawley female rats; details: for volume fraction (BV/TV) of trabecular, cortical and whole bone tissue: present-tense example, no data or figure; for bone density from three-dimensional micro-CT images / trabecular volume fraction: OVX rats, oral 10, 100, or 1000 μg/kg; for trabecular volume fraction: ex vivo micro-CT
Protocol: as §1, §2, §3, §4
Volume Fraction—Ex vivo micro-computed tomography (μCT). Volume fraction is a representative value for the amount of bone that occupies a given volume or space. High resolution image data were collected using a customized micro-CT system (ACTIS 150/225 system, BIR Inc., Lincolnshire, Ill.). The metaphysis of each right tibia was scanned over a three millimeter range and three-dimensional images were reconstructed. Data were subsequently processed to reveal the volume fraction (BV/TV) occupied by trabecular (cancellous) bone tissue, cortical bone tissue, and whole bone tissue. The resulting data provides information regarding the density of whole bone, cortical bone, and trabecular bone.

[7] = system: OVX rats; test: Bone mechanical competence indentation test; type: in vivo, Sprague-Dawley female rats; details: for bone strength (indentation test): present-tense example, no data or figure
Protocol: as §1, §2, §3, §4
Bone Mechanical Competence Indentation Test. After sacrifice, the left tibiae were trimmed to expose the cancellous bone of the proximal tibial metaphysis and an indentation test was performed by advancing a flat-tipped cylindrical post (1.5 mm diameter) axially into the cut surface to measure the compressive strength of the cancellous bone structure.

[8] = system: ICR Swiss mice; test: Stimulation of periosteal bone formation in a mouse calvarial injection model; type: in vivo; details: present-tense example, no data or figure
Protocol: Stimulation of Periosteal Bone Formation in a Mouse Calvarial Injection Model. The anabolic (bone formation) of compounds of the presently-disclosed subject matter are evaluated in the mouse calvarial injection model. Briefly, 4-week-old ICR Swiss mice are injected subcutaneously over the surface of the calvariae with compounds of the presently-disclosed subject matter at concentrations of 0, 1, 3, and 10 mg/kg/day for 5 days (twice a day). Microtubule inhibitor TN-16 (5 mg/kg/day for 2 days, twice a day) are used as a positive control. Mice are sacrificed two weeks after the injections are completed. Dissected calvarial samples are fixed in 10% phosphate-buffered formalin for 2 days, decalcified in 10% EDTA for 2 weeks and then embedded in paraffin. Histological sections are cut and stained with H&E and orange G. New woven bone formation (new bone area) is quantified by histomorphometry using the OsteoMeasure system (OsteoMetrics Inc., Atlanta, Ga.).

[9] = system: OVX rats; test: Regional femoral density via Archimedes' Principle; type: in vivo, Sprague-Dawley female rats; details: oral 10, 100, or 1000 μg/kg, three times per week for 6 weeks
Protocol: as §1, §2, §3
Following 6 weeks of treatment, blood was obtained from each animal via cardiac puncture following an overnight fast and animals were subsequently euthanized via carbon dioxide asphyxiation. […]
Regional Femoral Density via Archimedes' Principle. […] Briefly, each femur was measured with a Cen-Tech Digital Caliper and a cut was made from each end at 20% of the length of the femur plus half the width of the blade. Subsequently, the bone marrow was washed out of the femoral diaphysis and the Archimedes density for each of the three femoral regions was determined as described above.

[10] = present-tense example, no data or figure

Row | SMILES | production of CTX-I (bone resorption marker) in serum [1] | Binding Index (binding to hydroxyapatite) [2] | uterine mass [3] | lipid metabolism (total cholesterol, HDL, LDL in serum) [4, 10] | whole bone density and regional bone density [5] | volume fraction (BV/TV) of trabecular, cortical and whole bone tissue [6] | bone strength (indentation test) [7] | new bone area (calvarial injection model) [8] | lipid metabolism (total cholesterol, HDL, LDL in serum) ([4]; rat, in vivo) | whole bone density (right femora) ([5]; OVX rats, oral 10, 100, or 1000 μg/kg, three times per week for 6 weeks) | regional bone density (left femur) [9] | bone density from three-dimensional micro-CT images [6] | trabecular volume fraction [6] | bone strength (tibial indentation test) ([7]; OVX rats, oral 10, 100, or 1000 μg/kg) | ratio of uterine mass to body weight ([3]; OVX rats, oral 10, 100, or 1000 μg/kg, compared to animals treated with 17-ethinyl estradiol)
1 | C#C[C@]1(O)CC[C@H]2[C@@H]3CCc4cc(O)ccc4[C@H]3CC[C@@]21C [17-ethinyl estradiol] | descrease the production of CTX-1 to sham levels |  |  |  |  |  |  |  |  |  |  |  |  |  | 
2 | COc1ccc(NC(=O)CCC(=O)Nc2nnc(S(N)(=O)=O)s2)c(O)c1C(N)=O [Formula 35] |  | 20 | limited or no effect | limited or no effect | increase bone density | increase bone density | increase bone strength | increase new bone area |  |  |  |  |  |  | 
3 | COc1ccc(NC(=O)COCCOCCOCCNC(=O)CCO[C@@H]2CCC3C4CCc5cc(O)ccc5C4CCC32C)c(O)c1C(N)=O (stereo partly drawn) [Formula 124] |  | 100 |  |  |  |  |  | increase new bone area | limited or no effect | in the same ranges as those animals receiving 17-ethinyl estradiol (17 EE), Alendronate (Alen), or Parathyroid hormone 1-34 (PTH) | in the same ranges as those animals receiving 17-ethinyl estradiol (17 EE), Alendronate (Alen), or Parathyroid hormone 1-34 (PTH) | increase in bone density | in the same ranges as those animals receiving 17-ethinyl estradiol (17 EE), Alendronate (Alen), or Parathyroid hormone 1-34 (PTH) | dose-responsive increase in bone strength, relative to the OVX animals | 
4 | CC12CCC3c4ccc(O)cc4CCC3C1CC[C@H]2OCCC(=O)NCCOCCOCC(=O)Nc1ccc(OCc2ccccc2)c(C(N)=O)c1O (stereo partly drawn) [Formula 125] | do not inhibit production of CTX-I | 160 |  |  |  |  | increase bone strength | increase new bone area | limited or no effect |  | increased regional bone densities, as compared to the OVX animals; also recorded: increased regional bone densities, as compared to the Sham animals | increase in bone density | increased, as compared to OVX animals |  | lower
5 | COc1ccc(NC(=O)COCCOCCNC(=O)COc2ccc(-c3coc4cc(O)cc(O)c4c3=O)cc2)c(O)c1C(N)=O [Formula 128] |  |  | limited or no effect | limited or no effect | increase bone density | increase bone density | increase bone strength | increase new bone area |  |  |  |  |  |  | 
6 | COc1ccc(NC(=O)COCCOCCNC(=O)CCCC(CO[N+](=O)[O-])O[N+](=O)[O-])c(O)c1C(N)=O (stereo not drawn) [Formula 130] |  | 130 | limited or no effect | limited or no effect | increase bone density | increase bone density | increase bone strength | increase new bone area |  |  |  |  |  |  | 
7 | NCCCC(O)(P(=O)(O)O)P(=O)(O)O [alendronate] | descrease the production of CTX-1 to sham levels |  |  |  |  |  |  |  |  |  |  |  |  |  | 
